Measurements as given in patent publication US20230102554A1 (GB002, INC., priority 2019, published 2023).
pIC50: −log10 of the molar value.

Legend:
[1] = molecular target: T1, Human PDGFRα, cytoplasmic domain (GST-PDGFRα) (Homo sapiens, UniProt P16234); assay: Human PDGFRα biochemical inhibition assay (off-chip Mobility Shift Assay)
T1 construct: made in house

[2] = molecular target: T2, Human PDGFRβ, cytoplasmic domain (GST-PDGFRβ) (Homo sapiens, UniProt P09619); assay: Human PDGFRβ biochemical inhibition assay (off-chip Mobility Shift Assay)
T2 construct: made in house
T2 sequence (P09619 with tags, fused parts or gaps): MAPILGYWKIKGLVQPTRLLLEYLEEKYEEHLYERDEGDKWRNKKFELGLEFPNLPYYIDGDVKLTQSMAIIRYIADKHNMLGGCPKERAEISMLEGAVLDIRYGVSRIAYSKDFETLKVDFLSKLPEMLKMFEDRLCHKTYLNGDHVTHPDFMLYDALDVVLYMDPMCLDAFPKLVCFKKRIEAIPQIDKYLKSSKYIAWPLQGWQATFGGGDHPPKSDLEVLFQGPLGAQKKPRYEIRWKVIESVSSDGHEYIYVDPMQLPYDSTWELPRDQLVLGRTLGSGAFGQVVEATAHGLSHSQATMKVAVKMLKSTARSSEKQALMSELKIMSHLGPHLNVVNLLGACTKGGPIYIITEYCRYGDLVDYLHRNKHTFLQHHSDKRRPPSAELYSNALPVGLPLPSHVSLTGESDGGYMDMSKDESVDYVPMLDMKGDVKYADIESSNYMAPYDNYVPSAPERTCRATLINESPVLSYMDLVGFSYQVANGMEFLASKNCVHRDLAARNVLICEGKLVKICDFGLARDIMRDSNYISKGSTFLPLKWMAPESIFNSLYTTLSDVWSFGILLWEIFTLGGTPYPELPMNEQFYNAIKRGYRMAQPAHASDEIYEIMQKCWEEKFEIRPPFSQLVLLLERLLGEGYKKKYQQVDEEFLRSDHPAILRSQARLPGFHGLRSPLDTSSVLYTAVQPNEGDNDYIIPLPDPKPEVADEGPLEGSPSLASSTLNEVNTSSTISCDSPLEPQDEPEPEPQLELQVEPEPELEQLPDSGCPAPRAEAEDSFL
Procedure, shortened: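 GST-tagged cytoplasmic domain (aa 557-1106) from baculovirus was incubated 1 h at room temperature with compound, CSKtide, ATP at Km and Mg²⁺ in HEPES buffer, pH 7.5. Phosphorylated and unphosphorylated peptide were separated by off-chip mobility shift, and the product ratio P/(P+S) gave percent inhibition.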

T1 sequence (P16234 550-1089 T674I): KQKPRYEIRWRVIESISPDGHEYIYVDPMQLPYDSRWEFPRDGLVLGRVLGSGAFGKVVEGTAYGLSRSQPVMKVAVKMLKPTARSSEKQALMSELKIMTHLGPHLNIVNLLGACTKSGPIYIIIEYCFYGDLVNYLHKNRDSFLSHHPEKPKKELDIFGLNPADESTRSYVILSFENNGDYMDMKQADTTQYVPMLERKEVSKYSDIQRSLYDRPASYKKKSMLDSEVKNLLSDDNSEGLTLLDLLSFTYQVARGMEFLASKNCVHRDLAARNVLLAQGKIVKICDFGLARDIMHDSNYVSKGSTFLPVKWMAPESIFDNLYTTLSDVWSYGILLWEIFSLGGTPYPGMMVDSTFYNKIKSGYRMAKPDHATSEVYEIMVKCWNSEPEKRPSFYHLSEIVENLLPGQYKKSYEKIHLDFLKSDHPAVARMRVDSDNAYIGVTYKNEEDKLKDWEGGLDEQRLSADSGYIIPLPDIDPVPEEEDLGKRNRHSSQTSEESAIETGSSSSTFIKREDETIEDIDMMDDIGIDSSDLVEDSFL

| SMILES | pIC50 [1] | pIC50 [2] |
| --- | --- | --- |
| CCn1cc2ncc(N[C@@H](C)c3cccc(NC(=O)Cc4cc(F)cc(CN5CCN(C)CC5)c4)c3)nc2n1 [Compound 646, (S)-N-(3-(1-((2-ethyl-2H-pyrazolo[3,4-b]pyrazin-6-yl)amino)ethyl)phenyl)-2-(3-fluoro-5-((4-methylpiperazin-1-yl)methyl)phenyl)acetamide] | > 6.52 | 6.00 to 6.52 |
| CC(C)c1ccc(C(=O)Nc2cccc([C@H](C)Nc3cnc4cnn(C)c4n3)c2)cn1 [Compound 204, (S)-6-isopropyl-N-(3-(1-((1-methyl-1H-pyrazolo[3,4-b]pyrazin-6-yl)amino)ethyl)phenyl)nicotinamide] | > 6.52 | > 6.52 |
| C[C@H](Nc1cnc2cnn(C)c2n1)c1cccc(NC(=O)c2cc(C(C)(C)C)nn2C)c1 [Compound 159, (S)-3-(tert-butyl)-1-methyl-N-(3-(1-((1-methyl-1H-pyrazolo[3,4-b]pyrazin-6-yl)amino)ethyl)phenyl)-1H-pyrazole-5-carboxamide] | > 6.52 | > 6.52 |
| COc1ccc2ncc(N[C@@H](C)c3cccc(NC(=O)c4cncc(C)c4)c3)nc2c1 [Compound 32, (S)-N-(3-(1-((7-methoxyquinoxalin-2-yl)amino)ethyl)phenyl)-5-methylnicotinamide] | > 6.52 | > 6.52 |
| CCn1cc2ncc(N[C@@H](C)c3cccc(NC(=O)c4ccc(C5CC5)s4)c3)nc2n1 [Compound 291, (S)-5-cyclopropyl-N-(3-(1-((2-ethyl-2H-pyrazolo[3,4-b]pyrazin-6-yl)amino)ethyl)phenyl)thiophene-2-carboxamide] | > 6.52 | > 6.52 |
| CCn1cc2ncc(N[C@@H](C)c3cccc(NC(=O)Cc4ccc(C)c(C)n4)c3)nc2n1 [Compound 716, (S)-2-(5,6-dimethylpyridin-2-yl)-N-(3-(1-((2-ethyl-2H-pyrazolo[3,4-b]pyrazin-6-yl)amino)ethyl)phenyl)acetamide] | > 6.52 | ≤ 6.00 |
| CCn1cc2ncc(N[C@@H](C)c3cccc(NC(=O)c4ccc5c(c4)CN(C)C5)c3)nc2n1 [Compound 449, (S)-N-(3-(1-((2-ethyl-2H-pyrazolo[3,4-b]pyrazin-6-yl)amino)ethyl)phenyl)-2-methylisoindoline-5-carboxamide] | 6.00 to 6.52 | ≤ 6.00 |
| CCn1cc2ncc(N[C@@H](C)c3cc(NC(=O)Cc4cncc(C)c4)ccc3F)nc2n1 [Compound 652, (S)-N-(3-(1-((2-ethyl-2H-pyrazolo[3,4-b]pyrazin-6-yl)amino)ethyl)-4-fluorophenyl)-2-(5-methylpyridin-3-yl) acetamide] | > 6.52 | 6.00 to 6.52 |
| Cc1cncc(C(=O)Nc2cccc([C@H](C)Nc3cnc4[nH]cc(-c5cccnc5)c4n3)c2)c1 [Compound 591, (S)-5-methyl-N-(3-(1-((7-(pyridin-3-yl)-5H-pyrrolo[2,3-b]pyrazin-2-yl)amino)ethyl)phenyl)nicotinamide] | > 6.52 | > 6.52 |
| CCn1cc2ncc(N[C@@H](C)c3cccc(NC(=O)c4cncc(C)c4)c3)nc2n1 [Compound 9, (S)—N-(3-(1-((2-ethyl-2H-pyrazolo[3,4-b]pyrazin-6-yl)amino)ethyl)phenyl)-5-methylnicotinamide] | > 6.52 | 6.00 to 6.52 |
| C[C@H](Nc1cnc2[nH]cc(-c3cnn(C)c3)c2n1)c1cccc(NC(=O)[C@@H]2C[C@H]2C(F)(F)F)c1 [Compound 589, (1R,2R)-N-(3-((S)-1-((7-(1-methyl-1H-pyrazol-4-yl)-5H-pyrrolo[2,3-b]pyrazin-2-yl)amino)ethyl)phenyl)-2-(trifluoromethyl)cyclopropane-1-carboxamide] | ≤ 6.00 | 6.00 to 6.52 |
| C[C@H](Nc1cnc2[nH]cc(-c3cnn(C)c3)c2n1)c1cccc(NC(=O)c2ccc(C(F)(F)F)nc2)c1 [Compound 580, (S)-N-(3-(1-((7-(1-methyl-1H-pyrazol-4-yl)-5H-pyrrolo[2,3-b]pyrazin-2-yl)amino)ethyl)phenyl)-6-(trifluoromethyl) nicotinamide] | 6.00 to 6.52 | > 6.52 |
| C[C@H](Nc1cnc2cnn(C)c2n1)c1cccc(NC(=O)c2cncc(Br)c2)c1 [Compound 111, (S)-5-bromo-N-(3-(1-((1-methyl-1H-pyrazolo[3,4-b]pyrazin-6-yl)amino)ethyl)phenyl)nicotinamide] | > 6.52 | > 6.52 |
| C[C@H](Nc1cnc2cnn(C)c2n1)c1cccc(NC(=O)c2cnc3c(c2)CCCO3)c1 [Compound 70, (S)-N-(3-(1-((1-methyl-1H-pyrazolo[3,4-b]pyrazin-6-yl)amino)ethyl)phenyl)-3,4-dihydro-2H-pyrano[2,3-b] pyridine-6-carboxamide] | > 6.52 | > 6.52 |
| Cc1cc(C(=O)Nc2cccc([C@H](C)Nc3cnc4cnn(C)c4n3)c2)cnn1 [Compound 132, (S)-6-methyl-N-(3-(1-((1-methyl-1H-pyrazolo[3,4-b]pyrazin-6-yl)amino)ethyl)phenyl)pyridazine-4-carboxamide] | > 6.52 | ≤ 6.00 |
| Cc1cc(C(=O)Nc2cccc([C@H](C)Nc3cnc4cnn(C)c4n3)c2)cnc1N1CCSCC1 [Compound 260, (S)-5-methyl-N-(3-(1-((1-methyl-1H-pyrazolo[3,4-b]pyrazin-6-yl)amino)ethyl)phenyl)-6-thiomorpholinonicotinamide] | > 6.52 | > 6.52 |
| CCn1cc2ncc(N[C@@H](C)c3cccc(NC(=O)c4ccc(CN5CCOCC5)c(C(F)(F)F)c4)c3)nc2n1 [Compound 424, (S)-N-(3-(1-((2-ethyl-2H-pyrazolo[3,4-b]pyrazin-6-yl)amino)ethyl)phenyl)-4-(morpholinomethyl)-3-(trifluoromethyl)benzamide] | > 6.52 | > 6.52 |
| Cc1cncc(C(=O)Nc2cccc([C@H](C)Nc3cnc4[nH]ccc4n3)c2)c1 [Compound 552, (S)-N-(3-(1-((5H-pyrrolo[2,3-b]pyrazin-2-yl)amino)ethyl)phenyl)-5-methylnicotinamide] | > 6.52 | > 6.52 |
| C[C@H](Nc1cnc2cnn(C)c2n1)c1cccc(NC(=O)c2ccc(C3CC3)s2)c1 [Compound 136, (S)-5-cyclopropyl-N-(3-(1-((1-methyl-1H-pyrazolo[3,4-b]pyrazin-6-yl)amino)ethyl)phenyl)thiophene-2-carboxamide] | > 6.52 | > 6.52 |
| CCn1cc2ncc(N[C@@H](C)c3cccc(NC(=O)c4cncc(OC)c4)c3)nc2n1 [Compound 279, (S)-N-(3-(1-((2-ethyl-2H-pyrazolo[3,4-b]pyrazin-6-yl)amino)ethyl)phenyl)-5-methoxynicotinamide] | > 6.52 | 6.00 to 6.52 |
| CCn1cc2ncc(N[C@@H](C)c3cccc(NC(=O)Cc4cccc(Cl)c4)c3)nc2n1 [Compound 621, (S)-2-(3-chlorophenyl)-N-(3-(1-((2-ethyl-2H-pyrazolo[3,4-b]pyrazin-6-yl)amino)ethyl)phenyl)acetamide] | > 6.52 | > 6.52 |
| [2H]C([2H])([2H])n1ncc2ncc(N[C@@H](C)c3cccc(NC(=O)c4cncc(C)c4)c3)nc21 [Compound 184, (S)-5-methyl-N-(3-(1-((1-(methyl-d3)-1H-pyrazolo[3,4-b]pyrazin-6-yl)amino)ethyl)phenyl)nicotinamide] | > 6.52 | > 6.52 |
| Cc1n[nH]c2ncc(N[C@@H](C)c3cccc(NC(=O)c4cncc(Cl)c4)c3)nc12 [Compound 533, (S)-5-chloro-N-(3-(1-((3-methyl-1H-pyrazolo[3,4-b]pyrazin-5-yl)amino)ethyl)phenyl)nicotinamide] | > 6.52 | > 6.52 |
| C[C@H](Nc1cnc2cnn(C)c2n1)c1cccc(NC(=O)c2ccc(C#N)nc2)c1 [Compound 117, (S)-6-cyano-N-(3-(1-((1-methyl-1H-pyrazolo[3,4-b]pyrazin-6-yl)amino)ethyl)phenyl) nicotinamide] | > 6.52 | ≤ 6.00 |
| CCn1cc2ncc(N[C@@H](C)c3cc(NC(=O)Cc4ccc(Cl)c(C)n4)ccc3F)nc2n1 [Compound 668, (S)-2-(5-chloro-6-methylpyridin-2-yl)-N-(3-(1-((2-ethyl-2H-pyrazolo[3,4-b]pyrazin-6-yl)amino)ethyl)-4-fluorophenyl)acetamide] | > 6.52 | > 6.52 |
| CCn1cc2ncc(N[C@@H](C)c3cccc(NC(=O)c4ccc(Cl)c(C)c4)c3)nc2n1 [Compound 345, (S)-4-chloro-N-(3-(1-((2-ethyl-2H-pyrazolo[3,4-b]pyrazin-6-yl)amino)ethyl)phenyl)-3-methylbenzamide] | > 6.52 | > 6.52 |
| CCn1cc2ncc(N[C@@H](C)c3cccc(NC(=O)c4ccc(CN5CC[C@H](F)C5)c(Cl)c4)c3)nc2n1 [Compound 484, 3-chloro-N-(3-((S)-1-((2-ethyl-2H-pyrazolo[3,4-b]pyrazin-6-yl)amino)ethyl)phenyl)-4-(((S)-3-fluoropyrrolidin-1-yl)methyl) benzamide] | > 6.52 | > 6.52 |
| Cc1n[nH]c2ncc(N[C@@H](C)c3cccc(NC(=O)c4cnc(C5CC5)s4)c3)nc12 [Compound 541, (S)-2-cyclopropyl-N-(3-(1-((3-methyl-1H-pyrazolo[3,4-b]pyrazin-5-yl)amino)ethyl)phenyl)thiazole-5-carboxamide] | > 6.52 | > 6.52 |
| CCn1cc2ncc(N[C@@H](C)c3cccc(NC(=O)Cc4ccccc4F)c3)nc2n1 [Compound 451, (S)-N-(3-(1-((2-ethyl-2H-pyrazolo[3,4-b]pyrazin-6-yl)amino)ethyl)phenyl)-2-(2-fluorophenyl)acetamide] | > 6.52 | 6.00 to 6.52 |
| CCn1cc2ncc(N[C@@H](C)c3cc(NC(=O)Cc4ccc(C5CC5)nc4)ccc3C)nc2n1 [Compound 665, (S)-2-(6-cyclopropylpyridin-3-yl)-N-(3-(1-((2-ethyl-2H-pyrazolo[3,4-b]pyrazin-6-yl)amino)ethyl)-4-methylphenyl) acetamide] | > 6.52 | ≤ 6.00 |
